Data from patent US20120283274A1, “CRYSTALLINE FORMS OF SUBSTITUTED PYRAZOLOPYRIMIDINES” (priority 2009, published 2012).

Assays:
Assay type in all cases: physicochemical
[1] = Determination of aqueous solubility (HPLC)
Description: The samples were shaken with a temperature controlled “Thermomixer comfort” from Eppendorf at 800 rpm (24 hours, 23° C.). The resulting suspensions were filtered with Millipore Centrifugal Filter Device UFC30VVNB (0.1) and Centrifuge Hettich EBA 12 R (10.000 g).
The pH of the filtrate was measured, and the concentration of the free base was determined by HPLC (method is described in Example 7).
Suspension of co-crystal in water was agitated with a temperature controlled. Thermomixer comfort” from Eppendorf with 800 rpm (24 hours, 23° C.). The suspension was filtered with Millipore Centrifugal Filter Device UFC30VVNB (0.1μ) and Centrifuge Hettich EBA 12 R (10,000 g).

[2] = Determination of dissolution rate of a compressed tablet (UV-absorption spectroscopy); design: key to Dissolution rate: —: In case that no data given in the Table 3 it was found, that the dissolution rate did not change significantly in moving from the second to the third and fourth sectors; settings: for Dissolution rate: 0.15 M aqueous potassium chloride, 23° C., compressed tablet
Excerpt: Only one face of the tablet was exposed to the dissolution medium, which contained an acetate/phosphate buffer system to minimise perturbation of the experimental pH from dissolution of the drug. Stirring of the solution was continuous and at a constant rate. The absorption data was converted to absolute sample weights using previously determined, pH-dependent, molar extinction coefficients. An appropriate wavelength range was chosen to ensure that spectroscopic data with an absorption value of <1.3 was analyzed, avoiding erroneous dissolution results due to saturation of the […]. Dissolution rates were calculated from the fit of a first-order exponential equation to the experimental data obtained.
The dissolution rates listed in the Table 3 were determined at pH 2.0, 3.9, 5.4, and 7.3 (+/−0.1), at a temperature of 23° C. (+/−1° C.).

[3] = DVS (dynamic vapour sorption), hygroscopicity; settings: for hygroscopicity: DVS 50%->0%->95%->50% r.h.; for post-DVS Raman spectrum, change in form: after DVS cycle; for mass change Δm: change of relative humidity (r.h.) from 50 to 85%
Description: DVS (50%->0%->95%->50% r.h.) was performed on the samples as mentioned above. The results are summarized in the following:
Surface Measurement Systems Ltd. DVS-1 water vapour sorption analyzer and Projekt Messtechnik SPS 11-100n multi-sample water vapor sorption analyzer were used.
The sample was allowed to equilibrate at 50% relative humidity (r.h.) before starting e.g. the following predefined humidity program: • 2 h at 0% r.h. • 0 to 95% r.h. (5%/h) • 3 h at 95% r.h. • 95 to 0% (10%/h) • 2 h at 0% r.h.

solubility at 24 h ([1]; thermodynamic from solid, water, 24 hours, 23° C., at pH 8.5, near the detection limit) | Dissolution rate ([2]; pH 2.0) | Dissolution rate ([2]; pH 3.9) | Dissolution rate ([2]; pH 5.4) | Dissolution rate ([2]; pH 7.3) | solubility in water or aqueous solvents ([1]; water or aqueous solvents) | hygroscopicity [3] | post-DVS Raman spectrum, change in form [3] | mass change Δm [3] | total water content ([3]; humidity increased to 95% r.h., equilibrium reached) | enhancement of the dissolution rate compared to the free drug ([2]; at pH 2) | Compound
< 10 µg/mL | 0.58 µg/min | 0.22 µg/min | — | — |  |  |  |  |  |  | C[C@@H]1c2ccccc2CCN1C(=O)c1cc2ncc(Br)cn2n1 [Free drug compound, (6-bromo-pyrazolo[1,5-a]pyrimidin-2-yl)-(1(R)-methyl-3,4-dihydro-1H-isoquinolin-2-yl)-methanone]
 |  |  |  |  | below 10 μg/mL |  |  |  |  |  | CC1c2ccccc2CCN1C(=O)c1cc2ncc(Br)cn2n1 (centres unmarked) [compound A]
 | 0.46 µg/min | 0.68 µg/min | 1.26 µg/min | 1.44 µg/min |  | slightly hygroscopic | does not indicate any change in form | about 1% | approximately 2 wt.-% |  | C[C@@H]1c2ccccc2CCN1C(=O)c1cc2ncc(Br)cn2n1.O=C(O)c1ccc2ccccc2c1O [Example 4c, co-crystal of (6-bromo-pyrazolo[1,5-a]pyrimidin-2-yl)-(1(R)-methyl-3,4-dihydro-1H-isoquinolin-2-yl)-methanone and xinafoic acid]
 | 2.06 µg/min | 1.58 µg/min | — | — |  | not hygroscopic | does not indicate any change in form | about 0.1% |  | 3 fold | co-crystal of (6-bromo-pyrazolo[1,5-a]pyrimidin-2-yl)-(1(R)-methyl-3,4-dihydro-1H-isoquinolin-2-yl)-methanone and succinic acid [Example 2a]
 | 2.04 µg/min | 1.06 µg/min | — | — |  | not hygroscopic | does not indicate any change in form | about 0.1% |  |  | C[C@@H]1c2ccccc2CCN1C(=O)c1cc2ncc(Br)cn2n1.O=C(O)c1cc(O)ccc1O [Example 3c, co-crystal of (6-bromo-pyrazolo[1,5-a]pyrimidin-2-yl)-(1(R)-methyl-3,4-dihydro-1H-isoquinolin-2-yl)-methanone and gentisic acid]
